Test results as given in PubChem BioAssay (NCI).
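Exposure lasted 48 hours, with cells grown in 96-well plates and compounds tested at five concentrations. Definition used: TGI = concentration required for complete inhibition of growth.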

What was measured:
Test in all cases: NCI-60 cell line screen, 48 h
SNB-19 CNS = test system: SNB-19 CNS
SNB-75 CNS = test system: SNB-75 CNS
786-0 renal = test system: 786-0 renal
HT29 colon = test system: HT29 colon
RPMI-8226 leukemia = test system: RPMI-8226 leukemia
SK-MEL-5 melanoma = test system: SK-MEL-5 melanoma
SF-295 CNS = test system: SF-295 CNS
ACHN renal = test system: ACHN renal
NCI-H226 lung = test system: NCI-H226 lung
KM12 colon = test system: KM12 colon
RXF 393 renal = test system: RXF 393 renal
DMS 114 small cell lung = test system: DMS 114 small cell lung
NCI-H522 lung = test system: NCI-H522 lung
SK-OV-3 ovarian = test system: SK-OV-3 ovarian
MALME-3M melanoma = test system: MALME-3M melanoma
NCI-H460 lung = test system: NCI-H460 lung
DLD-1 colon = test system: DLD-1 colon
OVCAR-8 ovarian = test system: OVCAR-8 ovarian
HCT-116 colon = test system: HCT-116 colon
NCI-H23 lung = test system: NCI-H23 lung
COLO 205 colon = test system: COLO 205 colon
HCT-15 colon = test system: HCT-15 colon
M14 melanoma = test system: M14 melanoma
U251 CNS = test system: U251 CNS
OVCAR-3 ovarian = test system: OVCAR-3 ovarian
KM20L2 colon = test system: KM20L2 colon
HOP-18 NSCLC = test system: HOP-18 NSCLC
A549 NSCLC = test system: A549 NSCLC
SK-MEL-2 melanoma = test system: SK-MEL-2 melanoma
EKVX NSCLC = test system: EKVX NSCLC
SF-539 CNS = test system: SF-539 CNS
IGROV1 ovarian = test system: IGROV1 ovarian
M19-MEL melanoma = test system: M19-MEL melanoma
SN12C renal = test system: SN12C renal
UO-31 renal = test system: UO-31 renal
HL-60(TB) leukemia = test system: HL-60(TB) leukemia
MOLT-4 leukemia = test system: MOLT-4 leukemia
XF 498 CNS = test system: XF 498 CNS
SW-620 colon = test system: SW-620 colon
TK-10 renal = test system: TK-10 renal
SK-MEL-28 melanoma = test system: SK-MEL-28 melanoma
UACC-62 melanoma = test system: UACC-62 melanoma
HOP-62 NSCLC = test system: HOP-62 NSCLC
CCRF-CEM leukemia = test system: CCRF-CEM leukemia
UACC-257 melanoma = test system: UACC-257 melanoma
DMS 273 small cell lung = test system: DMS 273 small cell lung
K-562 leukemia = test system: K-562 leukemia
LOX IMVI melanoma = test system: LOX IMVI melanoma
A498 renal = test system: A498 renal
SR leukemia = test system: SR leukemia
OVCAR-5 ovarian = test system: OVCAR-5 ovarian
CAKI-1 renal = test system: CAKI-1 renal
LXFL 529 NSCLC = test system: LXFL 529 NSCLC
OVCAR-4 ovarian = test system: OVCAR-4 ovarian
SNB-78 CNS = test system: SNB-78 CNS

`C/C(=N\NC(=O)CC(=O)Nc1ccc(C)cc1)c1cc2ccccc2oc1=O` was tested, and the TGI (SNB-19 CNS) was greater than 100 µM, the TGI (SNB-75 CNS) was 76.6 µM and the TGI (786-0 renal) was greater than 100 µM. The TGI (HT29 colon) was greater than 100 µM, the TGI (RPMI-8226 leukemia) was greater than 100 µM and the TGI (SK-MEL-5 melanoma) was greater than 100 µM. It also gave a TGI (SF-295 CNS) greater than 100 µM, a TGI (ACHN renal) greater than 100 µM and a TGI (NCI-H226 lung) greater than 100 µM. It also gave a TGI (KM12 colon) greater than 100 µM, a TGI (RXF 393 renal) greater than 100 µM and a TGI (DMS 114 small cell lung) greater than 100 µM. For the same molecule, the TGI (NCI-H522 lung) was greater than 100 µM, the TGI (SK-OV-3 ovarian) was greater than 100 µM and the TGI (MALME-3M melanoma) was greater than 100 µM. It also gave a TGI (NCI-H460 lung) greater than 100 µM, a TGI (DLD-1 colon) greater than 100 µM and a TGI (OVCAR-8 ovarian) greater than 100 µM. For the same molecule, the TGI (HCT-116 colon) was greater than 100 µM, the TGI (NCI-H23 lung) was greater than 100 µM and the TGI (COLO 205 colon) was greater than 100 µM. The TGI (HCT-15 colon) was greater than 100 µM, the TGI (M14 melanoma) was greater than 100 µM and the TGI (U251 CNS) was greater than 100 µM. It also gave a TGI (OVCAR-3 ovarian) greater than 100 µM, a TGI (KM20L2 colon) greater than 100 µM and a TGI (HOP-18 NSCLC) greater than 100 µM. For the same molecule, the TGI (A549 NSCLC) was greater than 100 µM, the TGI (SK-MEL-2 melanoma) was greater than 100 µM and the TGI (EKVX NSCLC) was greater than 100 µM. It also gave a TGI (SF-539 CNS) greater than 100 µM, a TGI (IGROV1 ovarian) greater than 100 µM and a TGI (M19-MEL melanoma) greater than 100 µM. It also gave a TGI (SN12C renal) greater than 100 µM, a TGI (UO-31 renal) greater than 100 µM and a TGI (HL-60(TB) leukemia) greater than 100 µM. The TGI (MOLT-4 leukemia) was greater than 100 µM, the TGI (XF 498 CNS) was greater than 100 µM and the TGI (SW-620 colon) was greater than 100 µM. It also gave a TGI (TK-10 renal) greater than 100 µM, a TGI (SK-MEL-28 melanoma) greater than 100 µM and a TGI (UACC-62 melanoma) greater than 100 µM. The TGI (HOP-62 NSCLC) was greater than 100 µM, the TGI (CCRF-CEM leukemia) was greater than 100 µM and the TGI (UACC-257 melanoma) was greater than 100 µM. The TGI (DMS 273 small cell lung) was greater than 100 µM, the TGI (K-562 leukemia) was greater than 100 µM and the TGI (LOX IMVI melanoma) was greater than 100 µM.
Molecule `Clc1ccccc1C(n1cc(Br)cn1)n1cc(Br)cn1` has a TGI (SNB-19 CNS) greater than 100 µM, a TGI (A498 renal) of 35.9 µM and a TGI (SR leukemia) of 92.9 µM. It also gave a TGI (HT29 colon) of 29 µM, a TGI (RPMI-8226 leukemia) of 46.3 µM and a TGI (SK-MEL-5 melanoma) of 23.1 µM. The TGI (SF-295 CNS) was 43.1 µM, the TGI (ACHN renal) was 55.2 µM and the TGI (KM12 colon) was 40.8 µM. For the same molecule, the TGI (RXF 393 renal) was 34.4 µM, the TGI (DMS 114 small cell lung) was 56 µM and the TGI (NCI-H522 lung) was greater than 100 µM. For the same molecule, the TGI (OVCAR-5 ovarian) was 49 µM, the TGI (MALME-3M melanoma) was 46.9 µM and the TGI (NCI-H460 lung) was 28.1 µM. The TGI (CAKI-1 renal) was greater than 100 µM, the TGI (DLD-1 colon) was 54 µM and the TGI (OVCAR-8 ovarian) was 55.1 µM. The TGI (HCT-116 colon) was 42.9 µM, the TGI (LXFL 529 NSCLC) was greater than 100 µM and the TGI (NCI-H23 lung) was greater than 100 µM. It also gave a TGI (M14 melanoma) of 36.9 µM, a TGI (U251 CNS) greater than 100 µM and a TGI (OVCAR-4 ovarian) greater than 100 µM. For the same molecule, the TGI (SK-MEL-2 melanoma) was 45.6 µM, the TGI (SNB-78 CNS) was greater than 100 µM and the TGI (M19-MEL melanoma) was 34.5 µM. The TGI (SN12C renal) was 30.6 µM, the TGI (UO-31 renal) was 32.6 µM and the TGI (HL-60(TB) leukemia) was 44.6 µM. It also gave a TGI (MOLT-4 leukemia) of 39.2 µM, a TGI (XF 498 CNS) of 40.6 µM and a TGI (TK-10 renal) greater than 100 µM. It also gave a TGI (SK-MEL-28 melanoma) greater than 100 µM, a TGI (HOP-62 NSCLC) of 57.9 µM and a TGI (CCRF-CEM leukemia) of 93.1 µM. The TGI (UACC-257 melanoma) was 31.7 µM, the TGI (DMS 273 small cell lung) was 53 µM and the TGI (K-562 leukemia) was greater than 100 µM. It also gave a TGI (LOX IMVI melanoma) of 31.2 µM.
